For test [1], the target named is T1, CysLT1 (Cavia porcellus, UniProt Q2NNR5).
T1 construct: The assay mixture also contained 200 μg of lung membrane protein/plate well; from tissue; host or cells: guinea-pig lung (primarily parenchyma) membrane preparation
T1 sequence (Q2NNR5 1-340): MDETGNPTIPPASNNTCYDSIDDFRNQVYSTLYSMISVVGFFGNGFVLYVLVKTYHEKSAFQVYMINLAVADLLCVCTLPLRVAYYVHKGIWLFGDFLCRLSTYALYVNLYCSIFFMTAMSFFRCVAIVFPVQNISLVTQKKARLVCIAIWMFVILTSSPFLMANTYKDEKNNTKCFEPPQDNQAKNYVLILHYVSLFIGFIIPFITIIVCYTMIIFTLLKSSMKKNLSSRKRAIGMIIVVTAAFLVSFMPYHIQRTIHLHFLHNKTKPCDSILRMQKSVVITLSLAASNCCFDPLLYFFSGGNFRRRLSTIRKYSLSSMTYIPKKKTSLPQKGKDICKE
Description: CysLT1/LTD4 radioligand binding assay ([3H]LTD4, guinea-pig lung membrane preparation). To be noted: 300 pM [3H]LTD4, guinea-pig lung membranes, 30 minutes at room temperature. The method, then:
CysLT1/LTD4 Binding Protocol (Guinea-Pig Lung Membrane Preparation)
Guinea pigs were sacrificed and lung tissues removed. Connective tissue, trachea, large blood vessels and major airways were removed and the remaining tissue, primarily parenchyma, was homogenised in 20 volumes of 10 mM TRIS pH 7.4 containing 0.25M sucrose, 0.25 mM phenylmethylsulfonyl fluoride, 155 μg/ml benzenecarboximide, 5 μg/ml soybean trypsin inhibitor and 100 μg/ml bacitracin (Work Buffer), in a ULTRA-TURRAX T25 at 13500 rpm. The homogenate was centrifuged at 1000×g for 10 minutes at 4° C. The resulting supernatant was filtered through a sterile cloth and further centrifuged for 15 minutes at 40000×g at 4° C. The pellet obtained was resuspended in 10 volumes of Work Buffer, homogenised using a Potter (1100 rpm) and subjected to a final centrifugation step for 30 minutes at 40000×g at 4° C. This membrane pellet was finally resuspended in 10 volumes of 10 mM TRIS and 10 mM PIPES pH 7.4, and homogenised using a Potter (1100 rpm). Protein concentration was determined by the BRADFORD method using the Bio-Rad Protein Assay kit with BSA as standard. Protein aliquots were kept frozen at −80° C.
Radioligand Binding Assay
[^3H]LTD4 (136.9 Ci/mmol) was obtained from NEN.
The assays were performed in a final volume of 250 μl of 10 mM PIPES pH 7.5 containing 10 mM CaCl2, 10 mM MgCl2, 50 mM NaCl, 2 mM L-Cysteine, 2 mM Glycine and 300 pM [^3H]LTD4. The assay mixture also contained 200 μg of lung membrane protein/plate well. Non-specific binding was determined in the presence of zafirlukast 10 μM.
The assays were performed directly on Millipore Multiscreen GF/B plates, presoaked with 200 μl/well of assay buffer at room temperature. Incubations were conducted for 30 minutes at room temperature with continuous shaking. Separation of bound and free [^3H]LTD4 was done by filtration through the plates that were then washed three times with 175 μl/wash of 10 mM TRIS containing 100 mM NaCl at 4° C. The plates were dried and counted in a TRILUX Microbeta Liquid Scintillation Counter of Wallac.

Test [2] has as its system LTD4-induced airway microvascular leakage. Description: LTD4-induced microvascular permeability in guinea-pigs (Evans blue extravasation in trachea). The format is in vivo, guinea pig. To be noted: oral gavage 4 hours before, LTD4 1 μg/kg i.v., male Dunkin-Hartley guinea pigs. The method, then: LTD4-Induced Microvascular Permeability in Guinea-Pigs
Male Dunkin-Hartey guinea pigs (450-500 g) fasted for 18 hours were administered the test compounds by oral gavage 4 hours before being anesthetized with urethane (15%, i.p. 10 ml/kg). The left jugular vein was canulated under anaesthesia. Five minutes afterwards, Evans blue dye (40 mg/Kg) was injected intravenously. After five more minutes, LTD4 was administered (1 μg/kg, i.v.) to the animals in order to induce airway microvascular leakage. After yet another period of 5 minutes, animals were exsanguinated by cutting the right atria and the vascular bed was rinsed by perfusing 50 ml of saline solution through the left ventricle at a pressure of 150 cmH2O. Then the trachea was excised and incubated in formamide for 20 hours at 55° C. to extract the Evans blue dye from the tissue. Microvascular permeability was determined by light spectrophotometry at 620 nm of the extravasated dye.

Where [3] appears, read: Cavia porcellus, read-out: ED50.

pIC50: −log10 of the molar value. Where two headings read alike, the source gives them in different places.

Broadly, the pIC50 is −log10 of the IC50, conventionally taken in molar units. By ED50 is commonly meant the dose that gives a 50% effect, or the effect in half of the subjects. With `O=C(O)CCSC1c2cc(OCc3ccc4cc(F)c(F)cc4n3)ccc2OCc2ncccc21` (single isomer, unassigned; (+)) [Example 34, (+)-3-[7-(6,7-Difluoro-quinolin-2-ylmethoxy)-5,11-dihydro-10-oxa-1-aza-dibenzo[a,d]cyclohepten-5-ylsulfanyl]-propionic Acid], the negative logarithm of the IC50 (pIC50) in test [1] is 8.92. For the same compound, the median effective dose (ED50) in test [2] (setting [3]) is 0.018 mg/kg.
On to `O=C(O)CCSC1c2cc(OCc3ccc4cc(F)c(Cl)cc4n3)ccc2CCc2ncccc21` (single isomer, unassigned; (+)) [Example 43, (+) 3-[7-(7-Chloro-6-fluoro-quinolin-2-ylmethoxy)-10,11-dihydro-5H-benzo[4,5]cyclohepta[1,2-b]pyridin-5-ylsulfanyl]-propionic Acid], for which the negative logarithm of the IC50 (pIC50) in test [1] is 8.47.
Consider `O=C(O)CCSC1c2cc(OCc3ccc4cc(F)c(F)cc4n3)ccc2OCc2ncccc21` (single isomer, unassigned; (-)) [Example 35, (−)-3-[7-(6,7-Difluoro-quinolin-2-ylmethoxy)-5,11-dihydro-10-oxa-1-aza-dibenzo[a,d]cyclohepten-5-ylsulfanyl]-propionic Acid], for which the negative-log IC50 (pIC50) in test [1] was 9.46. Besides, in test [2], the ED50 stood at 0.009 mg/kg.
For `O=C(O)CCSC1c2ccccc2COc2ccc(OCc3ccc4cc(F)c(Cl)cc4n3)cc21` (stereo not drawn) [Compound A, reference compound], the negative-log IC50 (pIC50) in test [1] was 9.29. Further, the median effective dose (ED50) in test [2] worked out at 0.010 mg/kg.
Consider `CC(C)(O)c1ccccc1CC[C@@H](SCC1(CC(=O)O)CC1)c1cccc(/C=C/c2ccc3ccc(Cl)cc3n2)c1` [Compound B, reference compound], for which, in test [2] (setting [3]), the ED50 turned out to be 0.008 mg/kg.
`O=C(O)CCSC1c2cc(OCc3ccc4cc(F)c(F)cc4n3)ccc2OCc2ncccc21` (stereo not drawn) [Example 1, 3-{(7-[(6,7-difluoroquinolin-2-yl)methoxy]-5,11-dihydro[1]benzoxepino[3,4-b]pyridin-5-yl)thio}propanoic Acid] had a pIC50 in test [1] of 9.42. Besides, the median effective dose (ED50) in test [2] (setting [3]) came to 0.009 mg/kg.
In test [1], `O=C(O)CSC1c2cc(OCc3ccc4cc(F)c(Cl)cc4n3)ccc2OCc2ncccc21` (stereo not drawn) [Example 3, {(7-[(7-chloro,6-fluoro-quinolin-2-yl)methoxy]-5,11-dihydro[1]benzoxepino[3,4-b]pyrindin-5-yl)thio}acetic Acid] showed a negative logarithm of the IC50 (pIC50) of 9.57.
In turn, `O=C(O)CCSC1c2cc(OCc3ccc4cc(F)c(Cl)cc4n3)ccc2OCc2ncccc21` (stereo not drawn) [Example 4, 3-{(7-[(7-chloro,6-fluoro-quinolin-2-yl)methoxy]-5,11-dihydro[1]benzoxepino[3,4-b]pyrindin-5-yl)thio}propanoic Acid] showed a negative-log IC50 (pIC50) in test [1] of 9.55. Also, in test [2] (setting [3]), the ED50 turned out to be 0.03 mg/kg.
As for `O=C(O)CC1(CSC2c3cc(OCc4ccc5cc(F)c(F)cc5n4)ccc3OCc3ncccc32)CC1` (stereo not drawn) [Example 7, 1-{[(7-[(6,7-difluoroquinolin-2-yl)methoxy]-5,11-dihydro[1]benzoxepino[3,4-b]pyrindin-5-yl)thio]methyl}cyclopropyl Acetic Acid], in test [1], the negative-log IC50 (pIC50) is 9.85. In addition, in test [2] (setting [3]), the median effective dose (ED50) stood at 0.013 mg/kg.
With `CC(C)(CSC1c2cc(OCc3ccc4cc(F)c(F)cc4n3)ccc2OCc2ncccc21)C(=O)O` (stereo not drawn) [Example 8, 3-{(7-[(6,7-difluoroquinolin-2-yl)methoxy]-5,11-dihydro[1]benzoxepino[3,4-b]pyrindin-5-yl)thio}-2,2-dimethylpropanoic Acid], the pIC50 in test [1] is 9.30.
`CC(C)(CC(=O)O)SC1c2cc(OCc3ccc4cc(F)c(F)cc4n3)ccc2OCc2ncccc21` (stereo not drawn) [Example 9, 3-{(7-[(6,7-difluoroquinolin-2-yl)methoxy]-5,11-dihydro[1]benzoxepino[3,4-b]pyrindin-5-yl)thio}-3methylbutanoic Acid] showed a pIC50 in test [1] of 9.23. Moreover, the ED50 in test [2] (setting [3]) was 0.018 mg/kg.
As to `O=C(O)CC1(CSC2c3cc(/C=C/c4ccc5cc(F)c(F)cc5n4)ccc3OCc3ncccc32)CC1` (stereo not drawn) [Example 11, 1-{[(7-[(E)-2-(6,7-difluoroquinolin-2-yl)vinyl]-5,11-dihydro[1]benzoxepino[3,4-b]pyrindin-5-yl)thio]methyl}cyclopropyl Acetic], in test [1], the negative logarithm of the IC50 (pIC50) is 9.57. Besides, in test [2] (setting [3]), the ED50 came to 0.0013 mg/kg.
`O=C(O)CSC1c2cc(/C=C/c3ccc4cc(F)c(F)cc4n3)ccc2OCc2ncccc21` (stereo not drawn) [Example 12, {(7-[(E)-2-(6,7-difluoroquinolin-2-yl)vinyl]-5,11-dihydro[1]benzoxepino[3,4-b]pyrindin-5-yl)thio}acetic Acid] showed a pIC50 in test [1] of 9.46.
In test [1], `O=C(O)CC1(CSC2c3cc(OCc4ccc5cc(F)c(F)cc5n4)ccc3OCc3cccnc32)CC1` (stereo not drawn) [Example 18, 1-{[(9-[(6,7-difluoroquinolin-2-yl)methoxy]-5,11-dihydro[1]benzoxepino[4,3-b]pyrindin-11-yl)thio]methyl}cyclopropyl Acetic Acid] had a pIC50 of 9.48.
`O=C(O)CCSC1c2cc(OCc3ccc4cc(F)c(Cl)cc4n3)ccc2CCc2ncccc21` (stereo not drawn) [Example 23, 3-[7-(7-Chloro-6-fluoro-quinolin-2-ylmethoxy)-10,11-dihydro-5H-benzo[4,5]cyclohepta[1,2-b]pyridin-5-ylsulfanyl]-propionic Acid] gave a negative logarithm of the IC50 (pIC50) in test [1] of 9.47. Further, the 50% effective dose (ED50) in test [2] (setting [3]) was found to be 0.002 mg/kg.
For `O=C(O)CCSC1c2cc(OCc3ccc4cc(F)c(F)cc4n3)ccc2CCc2ncccc21` (stereo not drawn) [Example 24, 3-[7-(6,7-difluoro-quinolin-2-ylmethoxy)-10,11-dihydro-5H-benzo[4,5]cyclohepta[1,2-b]pyridin-5-ylsulfanyl]-propionic Acid], in test [1], the pIC50 was 9.22. Besides, the ED50 in test [2] (setting [3]) was determined as 0.01 mg/kg.
`O=C(O)CCSC1c2ccncc2CCc2ccc(OCc3ccc4cc(F)c(F)cc4n3)cc21` (stereo not drawn) [Example 25, 3-[7-(6,7-Difluoro-quinolin-2-ylmethoxy)-10,11-dihydro-5H-benzo[4,5]cyclohepta[1,2-c]pyridin-5-ylsulfanyl]-propionic Acid]: the pIC50 in test [1] was 9.17.
In the case of `O=C(O)CCSC1c2cc(CCc3ccc4cc(F)c(F)cc4n3)ccc2OCc2cccnc21` (stereo not drawn) [Example 28, 3-{7-[2-(6,7-Difluoro-quinolin-2-yl)-ethyl]-5,11-dihydro-10-oxa-4-aza-dibenzo[a,d]cyclohepten-5-ylsulfanyl}-propionic Acid], the pIC50 in test [1] is 8.70.
Same read-out and setting: the value for `O=C(O)CCSC1c2cc(OCc3ccc4cc(F)c(F)cc4n3)ccc2C=Cc2ncccc21` (stereo not drawn) [Example 33, 3-[7-(6,7-Difluoro-quinolin-2-ylmethoxy)-5H-benzo[4,5]cyclohepta[1,2-b]pyridin-5-ylsulfanyl]-propionic Acid] was 9.30.
`O=C(O)CC1(CSC2c3cc(/C=C/c4ccc5cc(F)c(F)cc5n4)ccc3C=Cc3ncccc32)CC1` (stereo not drawn) [Example 40, (1-{7-[2-(6,7-Difluoro-quinolin-2-yl)-vinyl]-5H-benzo[4,5]cyclohepta[1,2-b]pyridin-5-ylsulfanylmethyl}-cyclopropyl) Acetic Acid] gave a negative-log IC50 (pIC50) in test [1] of 9.30.

For the origin of these results see patent US7557212B2, “Tricyclic derivatives as LTD4 antagonists” (Laboratorios Almirall, S.A., priority 2002, dated 2009).
